Test [1] is described as follows: Binding affinity to double strand DNA (unknown origin).
A short description of test [2]: Binding affinity to H-telo G-quadruplex DNA (unknown origin).
Test [3] is described as follows: Inhibition of CUG-RNA/MBLN1 (unknown origin) interaction.
Test [4] concerns the target Cyclin-dependent kinase 1 (Homo sapiens, UniProt P06493). As to the kind of experiment: Inhibition of CDK1 (unknown origin).
For the next test, the target named is Acetylcholinesterase (Homo sapiens, UniProt P22303). As to the kind of experiment: Inhibition of acetylcholine esterase (unknown origin).
Another test concerns the target T1, Beta-casein (Bos taurus, UniProt P02666).
T1 sequence (P02666 whole entry): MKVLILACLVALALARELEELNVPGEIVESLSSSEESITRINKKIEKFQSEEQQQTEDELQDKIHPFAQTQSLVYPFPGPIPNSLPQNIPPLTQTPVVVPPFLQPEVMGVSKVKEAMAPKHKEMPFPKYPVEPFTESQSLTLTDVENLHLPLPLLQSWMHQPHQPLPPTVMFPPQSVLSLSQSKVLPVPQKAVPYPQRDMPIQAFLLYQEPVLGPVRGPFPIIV
As to the kind of experiment: Binding affinity to bovine beta-casein A1.

Another test concerns the target T2, Bcl-2-like protein 10 (Homo sapiens, UniProt Q9HD36).
T2 sequence (Q9HD36 whole entry): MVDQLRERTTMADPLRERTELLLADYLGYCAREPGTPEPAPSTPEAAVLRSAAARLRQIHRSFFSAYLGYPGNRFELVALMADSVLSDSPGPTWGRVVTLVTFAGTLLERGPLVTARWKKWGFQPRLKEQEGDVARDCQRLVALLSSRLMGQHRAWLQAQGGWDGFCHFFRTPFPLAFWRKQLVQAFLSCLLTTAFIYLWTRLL
In words: Binding affinity to Bcl-b (unknown origin).

Test [5] concerns the target T3, Glutathione S-transferase Mu 1 (Mus musculus, UniProt P10649).
T3 sequence (P10649 whole entry): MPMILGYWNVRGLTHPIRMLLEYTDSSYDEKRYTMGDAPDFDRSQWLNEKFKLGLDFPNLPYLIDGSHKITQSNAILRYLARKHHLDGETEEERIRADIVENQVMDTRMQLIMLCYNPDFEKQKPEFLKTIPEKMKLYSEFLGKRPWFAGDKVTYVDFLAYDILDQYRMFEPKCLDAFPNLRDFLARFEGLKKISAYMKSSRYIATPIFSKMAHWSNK
As to the kind of experiment: Inhibition of mouse GSTM1-1.

Test [6] is described as follows: Binding affinity to G-quadruplex RNA (unknown origin).
For test [7], the target named is RAC-alpha serine/threonine-protein kinase (Homo sapiens, UniProt P31749). As to the kind of experiment: Inhibition of Akt1 (unknown origin).

Bounds are passed on as bounds.

Acetylcholinesterase, sequence (P22303 whole entry): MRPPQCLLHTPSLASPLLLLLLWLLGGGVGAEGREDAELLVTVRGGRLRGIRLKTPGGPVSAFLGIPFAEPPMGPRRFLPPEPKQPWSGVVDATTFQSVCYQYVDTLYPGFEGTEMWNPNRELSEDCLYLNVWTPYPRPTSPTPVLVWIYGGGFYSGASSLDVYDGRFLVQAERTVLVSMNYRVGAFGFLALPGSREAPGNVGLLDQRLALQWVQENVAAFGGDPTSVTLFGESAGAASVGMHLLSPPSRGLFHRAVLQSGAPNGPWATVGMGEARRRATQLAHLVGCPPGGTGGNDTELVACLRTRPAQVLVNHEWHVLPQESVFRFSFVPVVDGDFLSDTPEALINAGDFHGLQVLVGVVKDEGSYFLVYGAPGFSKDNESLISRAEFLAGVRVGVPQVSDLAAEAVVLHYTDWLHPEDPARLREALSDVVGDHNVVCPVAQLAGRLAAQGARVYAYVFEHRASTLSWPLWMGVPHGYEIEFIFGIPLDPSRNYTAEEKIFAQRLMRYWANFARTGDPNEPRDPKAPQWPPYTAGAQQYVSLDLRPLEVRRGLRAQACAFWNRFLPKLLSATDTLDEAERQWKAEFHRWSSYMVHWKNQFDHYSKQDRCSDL
RAC-alpha serine/threonine-protein kinase, sequence (P31749 whole entry): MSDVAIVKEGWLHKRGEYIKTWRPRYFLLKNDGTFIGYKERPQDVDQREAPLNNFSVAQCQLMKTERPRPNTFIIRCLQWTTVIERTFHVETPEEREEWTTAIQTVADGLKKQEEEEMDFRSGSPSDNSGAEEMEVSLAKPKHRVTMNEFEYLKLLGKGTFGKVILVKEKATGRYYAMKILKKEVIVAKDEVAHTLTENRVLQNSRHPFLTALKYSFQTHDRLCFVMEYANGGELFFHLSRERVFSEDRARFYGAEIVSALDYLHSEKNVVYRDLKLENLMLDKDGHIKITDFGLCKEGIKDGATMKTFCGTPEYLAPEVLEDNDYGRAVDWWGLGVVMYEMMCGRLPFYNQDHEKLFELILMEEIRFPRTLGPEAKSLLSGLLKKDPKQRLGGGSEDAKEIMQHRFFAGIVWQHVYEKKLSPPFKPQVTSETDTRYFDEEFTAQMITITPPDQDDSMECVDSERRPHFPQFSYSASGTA
Cyclin-dependent kinase 1, sequence (P06493 whole entry): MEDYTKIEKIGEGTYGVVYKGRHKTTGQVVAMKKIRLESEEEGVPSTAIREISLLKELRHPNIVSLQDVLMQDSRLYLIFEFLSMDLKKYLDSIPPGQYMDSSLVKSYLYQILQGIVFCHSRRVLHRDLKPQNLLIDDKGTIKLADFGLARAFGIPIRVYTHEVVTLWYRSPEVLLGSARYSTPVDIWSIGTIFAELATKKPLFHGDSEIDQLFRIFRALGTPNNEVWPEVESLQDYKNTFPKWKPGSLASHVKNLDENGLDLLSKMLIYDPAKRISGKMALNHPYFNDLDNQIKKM

For `NCCOc1cc(NC(=O)c2cc(OCc3cn([C@H]4O[C@H](CO)[C@@H](O)[C@H](O)[C@H]4O)nn3)cc(C(=O)Nc3cc(OCCN)c4ccccc4n3)n2)nc2ccccc12`, the values for the deltaTm in [1] and in test [2] were 0 K and 30 K, respectively.

As for `CCc1nc2ccccc2cc1C(=O)N1CCC[C@H]1C(=O)N[C@H](CSSC[C@@H](NC(=O)[C@@H]1CCCN1C(=O)c1cc2ccccc2nc1CC)C(=O)N[C@@H](CCCCN)C(=O)NCCCN)C(=O)N[C@@H](CCCCN)C(=O)NCCCN`, the Ki in [3] came to 3600 nM.

`c1ccc2[nH]c(-c3cc[nH]n3)nc2c1` showed an IC50 in test [4] of 28000 nM.

Compound `O=C(C[n+]1ccccc1)N/N=C/c1ccc(/C=N/NC(=O)C[n+]2ccccc2)cc1` came in with an IC50 against Acetylcholinesterase of 2.3 nM.

Consider `CN(C)CC[C@H](CSc1ccccc1)Nc1ccc(S(=O)(=O)NC(=O)c2ccc(N3CCN(Cc4ccccc4-c4ccc(Cl)cc4)CC3)cc2)cc1[N+](=O)[O-]` [ABT 737], for which the Ki at Beta-casein and on Bcl-2-like protein 10 was greater than 1 nM each time.

For the compound `C[C@H](NC(=O)c1cccc(C(=O)N[C@@H](C)C(=O)N/N=C/c2ccc(SC[C@H](NC(=O)CC[C@H](N)C(=O)O)C(=O)NCC(=O)O)c([N+](=O)[O-])c2)c1)C(=O)N/N=C/c1ccc(SC[C@H](NC(=O)CC[C@H](N)C(=O)O)C(=O)NCC(=O)O)c([N+](=O)[O-])c1`, the IC50 in [5] was found to be 50 nM.

The compound `NCCOc1cc(NC(=O)c2cc(OCc3cn(CCC(=O)O)nn3)cc(C(=O)Nc3cc(OCCN)c4ccccc4n3)n2)nc2ccccc12` came in with a deltaTm in test [6] of 20.7 K.

Regarding `C[N+](C)(C)CCCCCCCCCC[N+](C)(C)C` [DECAMETHONIUM BROMIDE], on Acetylcholinesterase, half-maximal inhibition (IC50) required 1000 nM.

Compound `CC[C@H](C)[C@H](NC(=O)[C@H](CCCNC(=N)N)NC(=O)[C@H](CCC(=O)O)NC(=O)[C@H](Cc1cnc[nH]1)NC(=O)[C@H](CCCNC(=N)N)NC(=O)C(CCCCCCCCn1cc(CCCC(=O)NC(CCCCCCCCn2cc(C[C@H](NC(C)=O)C(=O)N[C@@H](Cc3ccccc3)C(=O)N[C@@H](Cc3c[nH]c4ccccc34)C(=O)N[C@@H](Cc3ccccc3)C(=O)N[C@@H](CC(C)C)C(=O)N[C@@H](CCCNC(=N)N)C(=O)NCC(N)=O)nn2)C(=O)N[C@H](C(=O)N[C@@H](Cc2ccccc2)C(=O)N[C@@H](Cc2ccc(O)cc2)C(=O)N[C@@H](CCCNC(=N)N)C(=O)N[C@@H](CC(C)C)C(=O)NCC(=O)N[C@@H](Cc2ccc(O)cc2)C(=O)NCCNC(=O)CCCC[C@H]2SC[C@H]3NC(=O)N[C@H]32)C(C)C)nn1)NC(C)=O)C(N)=O` (stereo partly drawn) returned a dissociation constant (Kd) in [7] of 200 nM.

With `O=C(Nc1cc(OCCN2CCCC2)c2ccccc2n1)c1cc(OCc2cn([C@H]3O[C@H](CO)[C@@H](O)[C@H](O)[C@H]3O)nn2)cc(C(=O)Nc2cc(OCCN3CCCC3)c3ccccc3n2)n1`, the deltaTm is 0.1 K in test [1] and 28 K in [2].

The values are drawn from ChEMBL document CHEMBL3351920, “Biased and unbiased strategies to identify biologically active small molecules” (Bioorg Med Chem, 2014).
